According to ChEMBL document CHEMBL3407329, “Looking for new antileishmanial derivatives in 8-nitroquinolin-2(1H)-one series” (Eur J Med Chem, 2015):

Legend:
[1] = Cytotoxicity against human HepG2 cells assessed as reduction in cell viability incubated for 72 hrs by MTT assay; assay type: cell-based
[2] = Selectivity index, ratio of CC50 for human HepG2 cells to IC50 for Leishmania donovani MHOM/IN/00/DEVI promastigotes; assay type: functional
[3] = test system: Leishmania donovani; assay: Antileishmanial activity against Leishmania donovani MHOM/IN/00/DEVI promastigotes assessed as reduction in parasite growth incubated for 72 hrs by MTT assay; assay type: functional, organism-based
[4] = test system: Leishmania donovani; assay: Antileishmanial activity against Leishmania donovani MHOM/IN/00/DEVI intracellular amastigotes infected in human THP1 cells assessed as reduction in parasite-infected macrophages incubated for 120 hrs by Giemsa staining based microscopy; assay type: functional, organism-based; settings: THP-1, 120 h
[5] = Cytotoxicity against human THP1 cells assessed as reduction in cell viability incubated for 72 hrs by MTT assay; assay type: cell-based; settings: THP-1 cells

O=c1cc(Oc2ccc(C(F)(F)F)cc2)c2cccc([N+](=O)[O-])c2[nH]1
CC50 at 72 h [1]: > 7.8 µM
Ratio CC50/IC50 [2]: >0.9
IC50 [3]: 8.4 µM

COc1ccc(Sc2cc(=O)[nH]c3c([N+](=O)[O-])cccc23)cc1
IC50 [3]: > 10 µM

O=c1cc(Oc2ccccc2)c2cccc([N+](=O)[O-])c2[nH]1
CC50 at 72 h [1]: > 12.5 µM
Ratio CC50/IC50 [2]: >0.9
IC50 [3]: 14 µM

O=c1cc(Oc2ccccc2Br)c2cccc([N+](=O)[O-])c2[nH]1
CC50 at 72 h [1]: > 7.8 µM
Ratio CC50/IC50 [2]: >0.96
IC50 [3]: 8.1 µM

O=c1cc(Oc2cccc(Cl)c2)c2cccc([N+](=O)[O-])c2[nH]1
IC50 [3]: > 10 µM

O=c1cc(Sc2ccc(C(F)(F)F)cc2)c2cccc([N+](=O)[O-])c2[nH]1
IC50 [4]: > 12.5 µM
CC50 at 72 h [5]: > 12.5 µM
CC50 at 72 h [1]: > 12.5 µM
Ratio CC50/IC50 [2]: >3.3
IC50 [3]: 3.8 µM

Cc1ccc(Sc2cc(=O)[nH]c3c([N+](=O)[O-])cccc23)cc1
IC50 [3]: > 10 µM

O=c1cc(Sc2ccccc2)c2cccc([N+](=O)[O-])c2[nH]1
CC50 at 72 h [1]: > 12.5 µM
Ratio CC50/IC50 [2]: >1.3
IC50 [3]: 9.3 µM

Cc1cccc(Oc2cc(=O)[nH]c3c([N+](=O)[O-])cccc23)c1
IC50 [3]: > 10 µM

O=c1cc(Sc2ccccc2Cl)c2cccc([N+](=O)[O-])c2[nH]1
CC50 at 72 h [1]: > 1.25 µM
Ratio CC50/IC50 [2]: >0.4
IC50 [3]: 3.5 µM

O=c1cc(Sc2ccccc2C(F)(F)F)c2cccc([N+](=O)[O-])c2[nH]1
CC50 at 72 h [1]: > 7.8 µM
Ratio CC50/IC50 [2]: >2.22
IC50 [3]: 3.5 µM

O=c1cc(Oc2ccc(Cl)cc2)c2cccc([N+](=O)[O-])c2[nH]1
CC50 at 72 h [1]: > 3.9 µM
Ratio CC50/IC50 [2]: >1.1
IC50 [3]: 3.7 µM

COc1ccc(Oc2cc(=O)[nH]c3c([N+](=O)[O-])cccc23)cc1
IC50 [3]: > 10 µM

Cc1ccc(Oc2cc(=O)[nH]c3c([N+](=O)[O-])cccc23)cc1
IC50 [4]: > 12.5 µM
CC50 at 72 h [5]: > 12.5 µM
CC50 at 72 h [1]: > 25 µM
Ratio CC50/IC50 [2]: >4.2
IC50 [3]: 6 µM

CCCCNc1cc(=O)[nH]c2c([N+](=O)[O-])cccc12
CC50 at 72 h [1]: 12.2 µM
IC50 [3]: 21.4 µM

O=c1cc(Sc2ccc(Cl)cc2Cl)c2cccc([N+](=O)[O-])c2[nH]1
CC50 at 72 h [1]: > 7.8 µM
Ratio CC50/IC50 [2]: >2.1
IC50 [3]: 3.8 µM

O=c1cc(Sc2cccc(F)c2)c2cccc([N+](=O)[O-])c2[nH]1
IC50 [3]: > 10 µM

Cc1ccccc1Sc1cc(=O)[nH]c2c([N+](=O)[O-])cccc12
IC50 [3]: > 10 µM

O=c1cc(Sc2ccc(Cl)cc2)c2cccc([N+](=O)[O-])c2[nH]1
IC50 [3]: > 10 µM

O=c1cc(Oc2cccc(C(F)(F)F)c2)c2cccc([N+](=O)[O-])c2[nH]1
CC50 at 72 h [1]: > 7.8 µM
Ratio CC50/IC50 [2]: >0.7
IC50 [3]: > 10 µM

COc1cccc(Sc2cc(=O)[nH]c3c([N+](=O)[O-])cccc23)c1
IC50 [3]: > 10 µM

Cc1ccccc1Oc1cc(=O)[nH]c2c([N+](=O)[O-])cccc12
IC50 [3]: > 10 µM

O=c1cc(Sc2cccc(Cl)c2)c2cccc([N+](=O)[O-])c2[nH]1
IC50 [3]: > 10 µM

O=c1cc(Sc2ccccc2F)c2cccc([N+](=O)[O-])c2[nH]1
IC50 [3]: > 10 µM

O=c1cc(Oc2cccc(Br)c2)c2cccc([N+](=O)[O-])c2[nH]1
IC50 [3]: > 10 µM

O=c1cc(N2CCOCC2)c2cccc([N+](=O)[O-])c2[nH]1
CC50 at 72 h [1]: 86.2 µM
IC50 [3]: 42.1 µM

O=c1cc(Oc2ccccc2C(F)(F)F)c2cccc([N+](=O)[O-])c2[nH]1
CC50 at 72 h [1]: > 15.6 µM
Ratio CC50/IC50 [2]: >1.6
IC50 [3]: 10 µM

O=c1cc(Oc2ccccc2F)c2cccc([N+](=O)[O-])c2[nH]1
IC50 [3]: > 10 µM

COc1cccc(Oc2cc(=O)[nH]c3c([N+](=O)[O-])cccc23)c1
IC50 [3]: > 10 µM

O=c1cc(Oc2ccccc2Cl)c2cccc([N+](=O)[O-])c2[nH]1
IC50 [3]: > 10 µM

O=c1cc(Nc2ccccc2)c2cccc([N+](=O)[O-])c2[nH]1
CC50 at 72 h [1]: 1.8 µM
IC50 [3]: > 50 µM

Cc1cc(Oc2cc(=O)[nH]c3c([N+](=O)[O-])cccc23)ccc1Cl
CC50 at 72 h [1]: > 15.6 µM
Ratio CC50/IC50 [2]: >2.6
IC50 [3]: 6 µM

COc1ccccc1Sc1cc(=O)[nH]c2c([N+](=O)[O-])cccc12
IC50 [3]: > 10 µM

CC(C)(C)OC(=O)NCCOCCOCCNc1cc(=O)[nH]c2c([N+](=O)[O-])cccc12
CC50 at 72 h [1]: 34.8 µM
IC50 [3]: > 50 µM

N=C(N)c1ccc(OCCCCCOc2ccc(C(=N)N)cc2)cc1 [PENTAMIDINE]
IC50 [4]: > 20 µM
CC50 at 72 h [5]: 31.2 µM
Ratio CC50/IC50 [2]: 0.4

COc1ccccc1Oc1cc(=O)[nH]c2c([N+](=O)[O-])cccc12
IC50 [3]: > 10 µM

NCCOCCOCCNc1cc(=O)[nH]c2c([N+](=O)[O-])cccc12
CC50 at 72 h [1]: 123 µM
IC50 [3]: > 50 µM

O=c1cc(Sc2ccc(F)cc2)c2cccc([N+](=O)[O-])c2[nH]1
IC50 [3]: > 10 µM

O=c1cc(Sc2ccc(Br)cc2)c2cccc([N+](=O)[O-])c2[nH]1
CC50 at 72 h [1]: > 3.9 µM
Ratio CC50/IC50 [2]: >0.9
IC50 [3]: 4.2 µM

O=c1cc(Oc2cccc(F)c2)c2cccc([N+](=O)[O-])c2[nH]1
IC50 [3]: > 10 µM

O=c1cc(Sc2cccc(C(F)(F)F)c2)c2cccc([N+](=O)[O-])c2[nH]1
IC50 [3]: > 10 µM

COc1cccc2c1C(=O)c1c(O)c3c(c(O)c1C2=O)C[C@@](O)(C(=O)CO)C[C@@H]3O[C@H]1C[C@H](N)[C@H](O)[C@H](C)O1 [DOXORUBICIN]
CC50 at 72 h [5]: 0.008 µM

O=c1cc(N2CCNCC2)c2cccc([N+](=O)[O-])c2[nH]1
CC50 at 72 h [1]: 2.4 µM
IC50 [3]: > 50 µM

Nc1ccccc1Sc1cc(=O)[nH]c2c([N+](=O)[O-])cccc12
IC50 [3]: > 10 µM

Nc1cc(=O)[nH]c2c([N+](=O)[O-])cccc12
CC50 at 72 h [1]: > 125 µM
IC50 [3]: > 50 µM

O=c1cc(Oc2ccc(Br)cc2)c2cccc([N+](=O)[O-])c2[nH]1
IC50 [3]: > 5 µM
